In brackets after ≈: the same amount, converted by molar mass.
Experiments:
Type in all cases: physicochemical
[1] = Thermal analysis by DSC and TGA; conditions: 10° C./min; for temperature of mass loss(es) on heating: TGA, Form 1: two distinct mass losses (FIG. 13), free base: a mass loss, probably water (FIG. 14)
Description: Differential Scanning Calorimetry (DSC)
DSC data were collected on a Mettler DSC 823e equipped with a 34 position auto-sampler. The instrument was calibrated for energy and temperature using certified indium. Typically 0.5-3 mg of each sample, in a pin-holed aluminium pan, was heated at 10° C./min from 25° C. to 300° C. A nitrogen purge at 50 ml/min was maintained over the sample.
Thermogravimetric Analysis (TGA)
TGA data were collected on a Mettler TGA/SDTA 851e equipped with a 34 position auto-sampler. The instrument was temperature calibrated using certified indium. Typically 5-30 mg of each sample was loaded onto a pre-weighed aluminium crucible and was heated at 10° C./min from ambient temperature to 400° C. A nitrogen purge at 50 ml/min was maintained over the sample.
Thermal analysis of Form 2 crystalline polymorph (a sample obtained using the method in Example 6) by DSC and TGA was undertaken using the method describe in General Methods. […]

[2] = Thermodynamic aqueous solubility
Description: Thermodynamic Aqueous Solubility
The suspension was equilibrated at 25° C. for 24 hours then the pH was measured. The suspension was then filtered through a glass fibre C filter into a 96 well plate. […] Quantitation was by HPLC with reference to a standard solution of approximately 0.25 mg·ml^−1 in DMSO. Different volumes of the standard, diluted and undiluted sample solutions were injected.
Analysis was performed on an Agilent HP1100 series system equipped with a diode array detector and using ChemStation software vB.02.01-SR1.

[3] = Solid state 13C NMR, environmental dependence of ketone:hydrate ratio; conditions: as prepared 67:33
Description: The analysis was carried out using a Varian VNMRS instrument operating at 100.56 MHz for ^13C (399.88 MHz for 1H) and 376.24 MHz for ^19F with a 4 mm (rotor o.d.) magic-angle spinning probe. Carbon-13 spectra were recorded from the sample using a crosspolarization magic-angle spinning (CPMAS) technique without and with dipolar dephasing (interrupted decoupling). Appropriate acquisition conditions were established using a set of short trial measurements: recycle 5 s, contact time 5 ms. A sample spin-rate of 10.0 kHz was used along with two-pulse phase-modulated (TPPM) 1H decoupling (at a radiofrequency field approximately equivalent to 75 kHz). The sample was run as-received and at ambient probe temperature (˜30° C. at this spin rate). Spectra are referenced with respect to neat tetramethylsilane (by setting the high-frequency line from adamantane to 38.5 ppm). The ^19F spectrum was obtained by direct excitation following a 3.6 μs 90° pulse, with a 60 s relaxation delay, at spin rate of 14 kHz and with no 1H decoupling. The spectrum is referenced relative to CFCI3.
The analysis was carried out using a Varian VNMRS instrument operating at 100.56 MHz for ^13C (399.88 MHz for 1H) and a 6 mm (rotor o.d.) magic-angle spinning probe. Carbon-13 spectra were recorded from the sample using a cross-polarization magic-angle spinning (CPMAS) technique. […]
The ^13C solid state NMR spectrum of a sample of Form 2 crystalline polymorph produced using the method of Example 5 is illustrated in FIG. 5. Based on the integration of the 208 ppm (ketone) and 102 ppm (hydrate) signals, the ketone:hydrate ratio was determined to be 67:33.
The ^13C solid state NMR spectrum illustrated in FIG. 6 was recorded after the sample had been stored at a relative humidity of <2% for one week. […] The ^13C solid state NMR spectrum shown in FIG. 7 was recorded after the sample had been stored at 75% RH for one week. […] The ^13C solid state NMR spectrum shown in FIG. 8 was recorded at 80° C. and gives a ketone content of 68%.

[4] = Gravimetric vapour sorption (GVS); conditions: 25° C.
Description: Gravimetric Vapour Sorption (GVS)
Sorption isotherms were obtained using a SMS DVS Intrinsic moisture sorption analyser, controlled by DVS Intrinsic Control software v1.0.0.30. The sample temperature was maintained at 25° C. by the instrument controls. The humidity was controlled by mixing streams of dry and wet nitrogen, with a total flow rate of 200 ml/min The relative humidity was measured by a calibrated Rotronic probe (dynamic range of 1.0-100% RH), located near the sample. The weight change, (mass relaxation) of the sample as a function of % RH was constantly monitored by the microbalance (accuracy ±0.005 mg).
Typically 5-20 mg of sample was placed in a tared mesh stainless steel basket under ambient conditions. The sample was loaded and unloaded at 40% RH and 25° C. (typical room conditions). A moisture sorption isotherm was performed as outlined below (2 scans giving 1 complete cycle). The standard isotherm was performed at 25° C. at 10% RH intervals over a 0-90% RH range. Data analysis was undertaken in Microsoft Excel using DVS Analysis Suite v6.0.0.7.
The sample was recovered after completion of the isotherm and re-analysed by XRPD.
Gravimetric vapour sorption analysis of Form 2 crystalline polymorph (a sample obtained using the method in Example 6) was undertaken using the method described in General Methods.

| solubility at 24 h ([2]; pH 5.8, thermodynamic from solid, suspension in water equilibrated at 25° C. for 24 hours, filtered, HPLC, pH of each suspension printed in same cell) [µg/mL] | pH measured after equilibration of the solubility suspension ([2]; water, 25° C., 24 hours) | Compound | temperature of mass loss(es) on heating [1] | temperature at which degradation begins ([1]; DSC/TGA, nitrogen, small mass loss until this temperature (FIG. 12)) [°C] | ketone share of ketone/hydrate signal intensity ([3]; after storage at 75% RH for one week (FIG. 7)) [%] | ketone share of ketone/hydrate signal intensity ([3]; after storage at relative humidity <2% for one week (FIG. 6)) [%] | ketone content ([3]; spectrum recorded at 80° C. (FIG. 8)) [%] | reversibility of water uptake ([4]; 0-90% RH range) | water uptake ([4]; over the 0-90% RH range) [%] |
| --- | --- | --- | --- | --- | --- | --- | --- | --- | --- |
| 300 (≈ 528 µM) | 5.8 | C#C[C@@H]1CN(C(=O)[C@H](CC(C)C)NC(=O)c2ccc(-c3nc(N4CCN(C)CC4)sc3F)cc2)[C@@H]2C(=O)CO[C@H]12 [Compound I free base, N-[1-6-(ethynyl-3-oxo-hexahydro-furo[3,2-b]pyrrole-4-carbonyl)-3-methyl-butyl]-4-[5-fluoro-2-(4-methyl-piperazin-1-yl)thiazol-4-yl]-benzamide] | below 110 °C |  |  |  |  |  |  |
|  |  | C#CC1CN(C(=O)C(CC(C)C)NC(=O)c2ccc(-c3nc(N4CCN(C)CC4)sc3F)cc2)C2C(=O)COC12.Cl (stereo not shown) [Form 1 crystalline polymorph, N-[1-6-(ethynyl-3-oxo-hexahydro-furo[3,2-b]pyrrole-4-carbonyl)-3-methyl-butyl]-4-[5-fluoro-2-(4-methyl-piperazin-1-yl)thiazol-4-yl]-benzamide monohydrochloride] | below 160 °C |  |  |  |  |  |  |
|  |  | N-[1-6-(ethynyl-3-oxo-hexahydro-furo[3,2-b]pyrrole-4-carbonyl)-3-methyl-butyl]-4-[5-fluoro-2-(4-methyl-piperazin-1-yl)thiazol-4-yl]-benzamide monohydrochloride and N-[1-6-(ethynyl-3-oxo-hexahydro-furo[3,2-b]pyrrole-4-carbonyl)-3-methyl-butyl]-4-[5-fluoro-2-(4-methyl-piperazin-1-yl)thiazol-4-yl]-benzamide hydrate monohydrochloride [Form 2 crystalline polymorph] |  | 160 | 67 | 67 | 68 | reversible | ~2.2 |

From US9650388B2, “Form 2 crystalline polymorph of a salt of N-[1-6-(ethynyl-3-oxo-hexahydro-furo[3,2-B]pyrrole-4-carbonyl)-3-methyl-butyl]-4-[5-fluoro-2-(4-methyl-piperazinyl) thiazol-4-yl]-benzamide useful as cysteine protease inhibitor” (MEDIVIR AB, priority 2013, dated 2017)
